“And” between values parts separate entries of the source, which are not always exact repeats. Identical values can stand only once. Toxic doses and inconclusive results are not listed. Cut-off read from the data, not from the text of the source: active = T/C of 150% or more; inactive = T/C below 125%.
System: L1210 leukemia ip in BDF1 mice, survival T/C
Assay: NCI In Vivo Anticancer Drug Screen. Data for tumor model L1210 Leukemia (intraperitoneal) in B6D2F1 (BDF1) mice
Conditions: endpoint: mean survival time, higher = longer survival
Outline: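 Value reflects the ratio of survival in compound-treated mice to survival in vehicle-treated controls, with both groups carrying the same transplanted tumor.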

[1] = dose: 100.0 mg/kg/injection, schedule: Q01DX009 (ip), vehicle: Klucel (hydroxypropylcellulose) (HPC)
[2] = dose: 200.0 mg/kg/injection, schedule: Q01DX009 (ip), vehicle: Klucel (hydroxypropylcellulose) (HPC)
[3] = dose: 400.0 mg/kg/injection, schedule: Q01DX009 (ip), vehicle: Klucel (hydroxypropylcellulose) (HPC)
[4] = dose: 100.0 mg/kg/injection, schedule: Q01DX009 (ip), vehicle: saline with Tween-80
[5] = dose: 100.0 mg/kg/injection, schedule: Q04DX002 (ip), vehicle: saline with Tween-80
[6] = dose: 200.0 mg/kg/injection, schedule: Q01DX009 (ip), vehicle: saline with Tween-80
[7] = dose: 200.0 mg/kg/injection, schedule: Q04DX002 (ip), vehicle: saline with Tween-80
[8] = dose: 400.0 mg/kg/injection, schedule: Q01DX009 (ip), vehicle: saline with Tween-80
[9] = dose: 400.0 mg/kg/injection, schedule: Q04DX002 (ip), vehicle: saline with Tween-80
[10] = dose: 100.0 mg/kg/injection, schedule: Q04DX002 (ip), vehicle: Klucel (hydroxypropylcellulose) (HPC)
[11] = dose: 200.0 mg/kg/injection, schedule: Q04DX002 (ip), vehicle: Klucel (hydroxypropylcellulose) (HPC)

Measured: T/C

O=C(CC(=O)C(F)(F)F)c1csc2ccccc12
inactive: dose: 15.0 mg/kg/injection, schedule: Q01DX015 (ip), vehicle: other 108 % of control | dose: 25.0 mg/kg/injection, schedule: Q01DX009 (ip), vehicle: saline 92 % of control | dose: 25.0 mg/kg/injection, schedule: Q04DX003 (ip), vehicle: acetone 97 % of control | dose: 30.0 mg/kg/injection, schedule: Q01DX015 (ip), vehicle: other 94 % of control | dose: 50.0 mg/kg/injection, schedule: Q01DX009 (ip), vehicle: saline 92 % of control | dose: 50.0 mg/kg/injection, schedule: Q04DX003 (ip), vehicle: acetone 100 % of control | dose: 60.0 mg/kg/injection, schedule: Q01DX015 (ip), vehicle: other 97 % of control | dose: 100.0 mg/kg/injection, schedule: Q01DX001 (ip), vehicle: saline 95 % of control | dose: 100.0 mg/kg/injection, schedule: Q04DX003 (ip), vehicle: acetone 97 % of control | dose: 120.0 mg/kg/injection, schedule: Q01DX015 (ip), vehicle: other 94 % of control

COc1ccc2nc(/N=C(/N)N=C(N)N)sc2c1
inactive: dose: 75.0 mg/kg/injection, schedule: Q01DX001 (ip), vehicle: carboxymethylcellulose (CMC) 100 % of control | dose: 150.0 mg/kg/injection, schedule: Q01DX001 (ip), vehicle: carboxymethylcellulose (CMC) 97 % of control | dose: 300.0 mg/kg/injection, schedule: Q01DX001 (ip), vehicle: carboxymethylcellulose (CMC) 103 % of control

Cc1cnc(C#N)c(-n2ccnc2)n1
inactive: dose: 50.0 mg/kg/injection, schedule: Q01DX009 (ip), vehicle: water 107 % of control | dose: 100.0 mg/kg/injection, schedule: Q01DX009 (ip), vehicle: water 94 % of control | dose: 100.0 mg/kg/injection, schedule: Q04DX003 (ip), vehicle: water 108 % of control | dose: 200.0 mg/kg/injection, schedule: Q01DX009 (ip), vehicle: water 92 % of control | dose: 200.0 mg/kg/injection, schedule: Q04DX003 (ip), vehicle: water 98 % of control

Oc1c(Br)cc(Br)c2cccnc12
inactive: [1] 100 % of control | dose: 100.0 mg/kg/injection, schedule: Q04DX003 (ip), vehicle: saline 98 % of control | [2] 91 % of control | dose: 200.0 mg/kg/injection, schedule: Q04DX003 (ip), vehicle: saline 102 % of control | [3] 86 % of control | dose: 400.0 mg/kg/injection, schedule: Q04DX003 (ip), vehicle: saline 96 % of control

O=C(O)CN(CCCCN(CC(=O)O)CC(=O)O)CC(=O)O
inactive: dose: 100.0 mg/kg/injection, schedule: Q01DX001 (ip), vehicle: other 111 % of control | dose: 200.0 mg/kg/injection, schedule: Q01DX001 (ip), vehicle: other 117 % of control | dose: 400.0 mg/kg/injection, schedule: Q01DX001 (ip), vehicle: other 96 % of control

CC1=CC(=O)c2ccccc2C1=O
inactive: dose: 10.0 mg/kg/injection, schedule: Q01DX015 (ip), vehicle: carboxymethylcellulose (CMC) 90 % of control | dose: 15.0 mg/kg/injection, schedule: Q01DX015 (ip), vehicle: carboxymethylcellulose (CMC) 90 % of control | dose: 20.0 mg/kg/injection, schedule: Q01DX015 (ip), vehicle: carboxymethylcellulose (CMC) 90 % of control | dose: 43.0 mg/kg/injection, schedule: Q01DX001 (ip), vehicle: carboxymethylcellulose (CMC) 97 % of control | dose: 64.0 mg/kg/injection, schedule: Q01DX001 (ip), vehicle: carboxymethylcellulose (CMC) 102 % of control | dose: 85.0 mg/kg/injection, schedule: Q01DX001 (ip), vehicle: carboxymethylcellulose (CMC) 108 % of control

CCOCCOCCOCCCNCC(=O)N1CCN(C(=O)CNCCCOCCOCCOCC)CC1
inactive: dose: 50.0 mg/kg/injection, schedule: Q01DX001 (ip), vehicle: carboxymethylcellulose (CMC) 92 % of control | dose: 100.0 mg/kg/injection, schedule: Q01DX001 (ip), vehicle: carboxymethylcellulose (CMC) 101 % of control | dose: 200.0 mg/kg/injection, schedule: Q01DX001 (ip), vehicle: carboxymethylcellulose (CMC) 103 % of control | dose: 400.0 mg/kg/injection, schedule: Q01DX001 (ip), vehicle: carboxymethylcellulose (CMC) 92 % of control

CCOC(=O)c1ccc(NC(=O)Nc2cccc(O)c2)cc1
inactive: dose: 100.0 mg/kg/injection, schedule: Q01DX001 (ip), vehicle: saline with Tween-80 89 % of control | [4] 95 % of control | [5] 99 % of control and 110 % of control | dose: 100.0 mg/kg/injection, schedule: Q04DX003 (ip), vehicle: saline with Tween-80 95 % of control | dose: 200.0 mg/kg/injection, schedule: Q01DX001 (ip), vehicle: saline with Tween-80 98 % of control | [6] 99 % of control | [7] 99 % of control and 106 % of control | dose: 200.0 mg/kg/injection, schedule: Q04DX003 (ip), vehicle: saline with Tween-80 93 % of control | dose: 400.0 mg/kg/injection, schedule: Q01DX001 (ip), vehicle: saline with Tween-80 94 % of control | [8] 95 % of control | [9] 103 % of control and 104 % of control | dose: 400.0 mg/kg/injection, schedule: Q04DX003 (ip), vehicle: saline with Tween-80 94 % of control

COc1ccc(/C=C/C(=O)O)cc1
inactive: [4] 100 % of control | [5] 88 % of control | [6] 107 % of control | [7] 98 % of control | [8] 97 % of control | [9] 88 % of control

CCOC(=O)c1ccc(N=[N+]([O-])c2ccc(C(=O)OCC)cc2)cc1
inactive: [10] 96 % of control | [11] 96 % of control | dose: 400.0 mg/kg/injection, schedule: Q04DX002 (ip), vehicle: Klucel (hydroxypropylcellulose) (HPC) 100 % of control

CCCC(=O)NC1Cc2cc(C)cc(C)c21 (stereo not drawn)
inactive: dose: 50.0 mg/kg/injection, schedule: Q04DX002 (ip), vehicle: Klucel (hydroxypropylcellulose) (HPC) 100 % of control | [10] 111 % of control | [11] 96 % of control

CCOC(=O)C(C)(C)C(C)=O
inactive: [1] 99 % of control | dose: 100.0 mg/kg/injection, schedule: Q04DX003 (ip), vehicle: Klucel (hydroxypropylcellulose) (HPC) 103 % of control | [2] 99 % of control | dose: 200.0 mg/kg/injection, schedule: Q04DX003 (ip), vehicle: Klucel (hydroxypropylcellulose) (HPC) 103 % of control | [3] 95 % of control | dose: 400.0 mg/kg/injection, schedule: Q04DX003 (ip), vehicle: Klucel (hydroxypropylcellulose) (HPC) 97 % of control

COC(=O)/C=C/CBr
inactive: dose: 0.2 mg/kg/injection, schedule: Q01DX015 (ip), vehicle: carboxymethylcellulose (CMC) 91 % of control | dose: 4.0 mg/kg/injection, schedule: Q01DX015 (ip), vehicle: carboxymethylcellulose (CMC) 109 % of control | dose: 5.0 mg/kg/injection, schedule: Q01DX001 (ip), vehicle: carboxymethylcellulose (CMC) 95 % of control | dose: 8.0 mg/kg/injection, schedule: Q01DX015 (ip), vehicle: carboxymethylcellulose (CMC) 91 % of control | dose: 10.0 mg/kg/injection, schedule: Q01DX001 (ip), vehicle: carboxymethylcellulose (CMC) 93 % of control | dose: 16.0 mg/kg/injection, schedule: Q01DX015 (ip), vehicle: carboxymethylcellulose (CMC) 100 % of control and 102 % of control | dose: 32.0 mg/kg/injection, schedule: Q01DX015 (ip), vehicle: carboxymethylcellulose (CMC) 100 % of control

OCC(O)C(O)C(O)C(O)CNC(CO)(CO)CO (stereo not drawn)
inactive: dose: 100.0 mg/kg/injection, schedule: Q04DX002 (ip), vehicle: saline 104 % of control | dose: 200.0 mg/kg/injection, schedule: Q04DX002 (ip), vehicle: saline 88 % of control | dose: 400.0 mg/kg/injection, schedule: Q04DX002 (ip), vehicle: saline 95 % of control

Cc1ccc(-n2c(=O)c(N=Nc3ccc(Br)cc3)c(O)n(-c3ccccc3Cl)c2=S)cc1
inactive: dose: 37.5 mg/kg/injection, schedule: Q01DX001 (ip), vehicle: Klucel (hydroxypropylcellulose) (HPC) 107 % of control | dose: 75.0 mg/kg/injection, schedule: Q01DX001 (ip), vehicle: Klucel (hydroxypropylcellulose) (HPC) 110 % of control | dose: 150.0 mg/kg/injection, schedule: Q01DX001 (ip), vehicle: Klucel (hydroxypropylcellulose) (HPC) 104 % of control

CCN(CC)CN1C(=O)C(=O)c2ccccc21
inactive: dose: 100.0 mg/kg/injection, schedule: Q01DX001 (ip), vehicle: steriod suspending solution 92 % of control | dose: 200.0 mg/kg/injection, schedule: Q01DX001 (ip), vehicle: steriod suspending solution 108 % of control | dose: 400.0 mg/kg/injection, schedule: Q01DX001 (ip), vehicle: steriod suspending solution 114 % of control
